Measured values published in US6967205B1, “Compounds with antibacterial and antiparasitic properties” (New Pharma Research Sweden AB, priority 1999, dated 2005).
Converted amounts (≈) assume the structure as drawn.

Assays:
Bacillus cereus = assay: M.I.C. by broth dilution method (NCCLS 1988), gram-positive bacteria; type: cell-based; settings: in vitro broth dilution
Procedure, shortened: (§1)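 MIC values were obtained by broth dilution following NCCLS 1988 against gram-positive strains including Bacillus subtilus ATCC 6633, Streptococcus faecium and Staphylococcus ATCC 6538. Enrofloxacin served as reference. Compound stocks were 1 000 μg/ml in aqueous KOH or KOH/DMF.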

[1] = test system: Bacillus subtilus (ATCC 6633); assay: as above; type: cell-based; settings: ATCC6633, in vitro broth dilution
Procedure, shortened: as §1

[2] = test system: Micrococcus Luteus (ATCC 9341); assay: as above; type: cell-based; settings: ATCC9341, in vitro broth dilution, read-out: M.I.C. values Microc. Luteus
Procedure, shortened: as §1

[3] = test system: Staph. aureus (ATCC 29737); assay: as above; type: cell-based; settings: Staphylococcus aureus, ATCC29737, in vitro broth dilution
Procedure, shortened: as §1

[4] = test system: Staph. epidermidis (ATCC 12228); assay: as above; type: cell-based; settings: Staphylococcus epidermidis, ATCC12228, in vitro broth dilution
Procedure, shortened: as §1

[5] = test system: Staphylococcus (ATCC 6538); assay: as above; type: cell-based; settings: ATCC6538, in vitro broth dilution, read-out: M.I.C. values Staph. (ATCC 6538)
Procedure, shortened: as §1

Streptococcus faecium = assay: as above; type: cell-based; settings: Enterococcus faecium, in vitro broth dilution, read-out: M.I.C. values Streptoc. faecium
Procedure, shortened: as §1

gram-positive bacteria = assay: Antibacterial activity against gram-positive bacteria, overall comparison with enrofloxacin; type: cell-based; settings: seven gram-positive strains of Table 6
Method: The antibacterial activity of the present compounds was investigated by in vitro evaluation of their M.I.C. (Minimum Inhibitory Concentration) values. The evaluation was conducted in complete accordance with the “Broth dilution method”, as outlined by the U.S. National Committee for Clinical Laboratory Standards “NCCLS 1988”.
Solutions of the present compounds were prepared by dissolving 0.01 g of a test compound in either 10% KOH (aq) or a 10% KOH/DMF mixture, after which sterile, distilled H2O was added up to a total volume of 10 ml, thereby yielding a test compound concentration of 1 000 μg/ml.
In this evaluation, the antibacterial activity of the present compounds and enrofloxacin as reference compound was tested against seven strains of gram-positive bacteria, namely Bacillus subtilus (ATCC 6633), Bacillus cereus, Streptococcus faecium, Micrococcus Luteus (ATCC 9341), Staph. aureus (ATCC 29737), Staph. epidermidis (ATCC 12228) and Staphylococcus (ATCC 6538).

[6] = test system: Eimeria acervulina, E. maxima, E. necatrix, E. tenella and E. brunetti; assay: Prophylactic anticoccidial activity in chickens of Habbared X breed (5 Eimeria strains); type: in vivo
Method: The anticoccidial activity of the present compounds as prophylactic agents was evaluated in vivo on […] one day old (1 day after hatch) chickens of Habbared X breed. The chickens were divided into four groups of 20 birds each, and each group was located in a separate pen (1 m×1 m). The chickens were then fed with unmedicated food up to day 7 after hatch. Fresh water was supplied ad libitum .
On day 8 after hatch, the four groups were fed as follows (1 ppm=1 mg drug/kg feed): • Group #1: feed containing JA 39 (100 ppm); • Group #2: feed containing JA 42 (100 ppm); • Group #3: feed containing Coxistac (60 ppm), a known anticoccidial agent (see U.S. Pat. No. 3,857,948);
Group #4: feed containing no drug (control group).
The chickens were fed as above on day 8 and 9 after hatch. On day 10 after hatch, each chicken was infected orally by 6 000-7 000 oocysts containing a mixture of 5 mature sporulated strains, namely Eimeria acervulina, E. maxima, E. necatrix, E. tenella and E. brunetti. The groups #1-3 received drug as above from day 10 to 21 after hatch.
From day 14 to 21 after hatch, fresh fecal droplets were collected and examined daily. The average number of oocysts/g faeces was then calculated in accordance with the so-called Mc-Master technique (Soulsby, E. J., Helminths, Arthropods & Protozoa of domesticated animals, p. 789, 6th Ed., Williams & Wilkins Co. Baltimore (USA), Tindall & Cassell Ltd., London, 1968). The final weight of and mean total amount of feed consumed by each bird were also examined, and the results are summarized in Table 8 hereinbelow.

[7] = test system: E. mitis, E. hagani, E. praecox, E. acervulina, E. maxima, E. necatrix, E. tenella and E. brunetti; assay: Prophylactic anticoccidial effect in chickens of Arbor Aker breed (8 Eimeria strains); type: in vivo; settings: 100 ppm in feed from day 3, infected day 7
Method: JA 12, JA 39 and JA 42 was also evaluated in chickens of Arbor Aker breed. These trials were conducted by using basically the same test protocol as that used for the chickens of Habbared X breed, albeit with the following modifications:
• i) On day 3 after hatch, the tested groups of chickens received feed containing 100 ppm of JA 12, JA 39, JA 42 or Coxistac (60 ppm); • ii) On day 7 after hatch, the chickens were infected orally by oocysts containing a mixture of 8 mature sporulated strains, namely E. mitis, E. hagani, E. praecox, E. acervulina, E. maxima, E. necatrix, E. tenella and E. brunetti.

`O=C(O)c1cn(C2CC2)c2cc(N3CCN(c4cncc(Cl)n4)CC3)c(F)cc2c1=O` [JA 39, 7-[4-(6-chloro-2-pyrazinyl)-1-piperazinyl]-1-cyclopropyl-6-fluoro-4-oxo-1,4-dihydro-3-quinolinecarboxylic acid] showed an MIC (Bacillus cereus) of 0.01 µg/mL (≈ 0.0225 µM), an MIC [1] of 0.06 µg/mL (≈ 0.135 µM) and an MIC [2] of 1 µg/mL (≈ 2.25 µM). The MIC [3] was 0.12 µg/mL (≈ 0.27 µM), the MIC [4] was 0.01 µg/mL (≈ 0.0225 µM) and the MIC [5] was 0.03 µg/mL (≈ 0.0676 µM). The MIC (Streptococcus faecium) was 0.25 µg/mL (≈ 0.563 µM), the “antibacterial activity against gram-positive bacteria compared to that of enrofloxacin” value (gram-positive bacteria) was “clearly superior” and the “anticoccidial effect (in words)” value ([6]; chickens of Habbared X breed, 100 ppm in feed) was “excellent anticoccidial effect”. The “Average number of Eimeria spp. oocysts/g faeces, day after hatch 14” value ([6]; day 14 after hatch, drug in feed (JA 39, JA 42 100 ppm; Coxistac 60 ppm), infected day 10) was 0.0 oocysts/g faeces, the “Average number of Eimeria spp. oocysts/g faeces, day after hatch 15” value ([6]; day 15 after hatch, drug in feed (JA 39, JA 42 100 ppm; Coxistac 60 ppm), infected day 10) was 4000 oocysts/g faeces and the “Average number of Eimeria spp. oocysts/g faeces, day after hatch 16” value ([6]; day 16 after hatch, drug in feed (JA 39, JA 42 100 ppm; Coxistac 60 ppm), infected day 10) was 5000 oocysts/g faeces. The “Average number of Eimeria spp. oocysts/g faeces, day after hatch 17” value ([6]; day 17 after hatch, drug in feed (JA 39, JA 42 100 ppm; Coxistac 60 ppm), infected day 10) was 3000 oocysts/g faeces, the “Average number of Eimeria spp. oocysts/g faeces, day after hatch 18” value ([6]; day 18 after hatch, drug in feed (JA 39, JA 42 100 ppm; Coxistac 60 ppm), infected day 10) was 0.0 oocysts/g faeces and the “Average number of Eimeria spp. oocysts/g faeces, day after hatch 19” value ([6]; day 19 after hatch, drug in feed (JA 39, JA 42 100 ppm; Coxistac 60 ppm), infected day 10) was 0.0 oocysts/g faeces. For the same compound, the “Average number of Eimeria spp. oocysts/g faeces, day after hatch 21” value ([6]; day 21 after hatch, drug in feed (JA 39, JA 42 100 ppm; Coxistac 60 ppm), infected day 10) was 0.0 oocysts/g faeces, the “Mean body weight” value ([6]; final weight, infected chickens, drug in feed (JA 39, JA 42 100 ppm; Coxistac 60 ppm)) was 68.2 g and the “Mean amount of feed consumed” value ([6]; mean total feed per bird, infected chickens, drug in feed (JA 39, JA 42 100 ppm; Coxistac 60 ppm)) was 81 g. The “Average number of Eimeria spp. oocysts/g faeces, Total” value ([6]; total of days 14-21 after hatch, drug in feed (JA 39, JA 42 100 ppm; Coxistac 60 ppm)) was 12000 oocysts/g faeces and the “prophylactic anticoccidial effect (in words)” value [7] was “essentially the same as those reported for the trials with the chickens of Habbared X breed”.
